Patent publication US12599672B2, “KRAS proteolysis targeting chimeras” (PAQ Therapeutics Inc., priority 2023, dated 2026)

Experiments:
KRAS G12V = biological target: T1, KRAS G12V (Homo sapiens, UniProt P01116, G12V); assay: KRAS G12V HiBit assay; type: cell-based; settings: SW620-KRAS (G12V)-HiBit-KI cells, compound treatment for 24 hours, class symbols
T1 construct: SW620-KRAS (G12V)-HiBit-KI cell (Pharmaron); host or cells: SW620-KRAS (G12V)-HiBit-KI cells (HiBiT knock-in at the endogenous KRAS locus)
Method in brief: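 HiBiT-tagged KRAS G12V cells treated 24 h with compound in a 3-fold, 10-point series (0.3 mM DMSO stock); lytic HiBiT reagent with LgBiT added after 15 min room-temperature equilibration. Degradation calculated against 0.1% DMSO high control.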

KRAS G12D = biological target: T2, KRAS G12D (Homo sapiens, UniProt P01116, G12D); assay: KRAS G12D HiBit assay; type: cell-based; settings: AsPc-1-KRAS (G12D)-HiBit-KI cell, compound treatment for 24 hours; for DC50: absolute DC50
T2 construct: AsPc-1-KRAS (G12D)-HiBit-KI cell (Pharmaron); host or cells: AsPc-1-KRAS (G12D)-HiBit-KI cells (HiBiT knock-in at the endogenous KRAS locus)
Method in brief: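 Cells were treated for 24 h with compounds in a 3-fold, 10-point dilution series from a 0.3 mM DMSO stock, then equilibrated 15 min at room temperature. KRAS G12D HiBiT levels were read by luminescence after lytic Nano-Glo HiBiT reagent with LgBiT; inhibition calculated relative to 0.1% DMSO high control.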

[1] = numeric bounds given in place of class symbols

T2 sequence (P01116 1-188 isoform P01116-2 G12D): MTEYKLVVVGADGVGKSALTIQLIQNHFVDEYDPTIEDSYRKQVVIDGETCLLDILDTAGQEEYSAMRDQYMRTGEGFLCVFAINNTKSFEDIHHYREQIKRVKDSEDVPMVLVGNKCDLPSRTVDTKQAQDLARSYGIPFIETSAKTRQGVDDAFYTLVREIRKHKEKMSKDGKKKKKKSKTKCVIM
T1 sequence (P01116 1-188 isoform P01116-2 G12V): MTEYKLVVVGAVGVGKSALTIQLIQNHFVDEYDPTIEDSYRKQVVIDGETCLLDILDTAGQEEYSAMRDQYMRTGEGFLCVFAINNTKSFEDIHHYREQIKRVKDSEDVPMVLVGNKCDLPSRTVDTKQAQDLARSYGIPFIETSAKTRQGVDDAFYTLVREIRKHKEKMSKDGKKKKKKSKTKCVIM

Compound | DC50 (KRAS G12V) | DC50 (KRAS G12D; class symbols) | Dmax (KRAS G12D; class symbols) | DC50 (KRAS G12D; [1])
C#Cc1c(F)ccc2cc(O)cc(-c3ncc4c(N5CCC[C@@](C)(O)C5)nc(OC[C@@]56CCCN5[C@H](COC(=O)N5CCC(OCCC#Cc7cccc8c7n(C)c(=O)n8C7CCC(=O)NC7=O)CC5)CC6)nc4c3F)c12 (stereo partly drawn) [Compound 127, ((3S,7aS)-7a-(((7-(8-Ethynyl-7-fluoro-3-hydroxynaphthalen-1-yl)-8-fluoro-4-((R)-3-hydroxy-3-methylpiperidin-1-yl)pyrido[4,3-d]pyrimidin-2-yl)oxy)methyl)hexahydro-1H-pyrrolizin-3-yl)methyl 4-((4-(1-(2,6-dioxopiperidin-3-yl)-3-methyl-2-oxo-2,3-dihydro-1H-benzo[d]imidazol-4-yl)but-3-yn-1-yl)oxy)piperidine-1-carboxylate] | 10 to 100 nM | < 100 nM | – | –
CCc1c(F)ccc2cc(O)cc(-c3ncc4c(N5CCC[C@@](C)(O)C5)nc(OC[C@@]56CCCN5[C@H](CCCN5CCC7(CC5)CC(N5CCC(c8ccc9c(c8)n(C)c(=O)n9C8CCC(=O)NC8=O)CC5)C7)CC6)nc4c3F)c12 (stereo partly drawn) [Compound 472, 3-(5-(1-(7-(3-((3R,7aS)-7a-(((7-(8-Ethyl-7-fluoro-3-hydroxynaphthalen-1-yl)-8-fluoro-4-((R)-3-hydroxy-3-methylpiperidin-1-yl)pyrido[4,3-d]pyrimidin-2-yl)oxy)methyl)hexahydro-1H-pyrrolizin-3-yl)propyl)-7-azaspiro[3.5]nonan-2-yl)piperidin-4-yl)-3-methyl-2-oxo-2,3-dihydro-1H-benzo[d]imidazol-1-yl) piperidine-2,6-dione] | 10 to 100 nM | < 100 nM | – | –
CCc1c(F)ccc2cc(O)cc(-c3ncc4c(N5CCC[C@@](C)(O)C5)nc(OC[C@@]56CCCN5[C@H](COC(=O)N5CCC(CN7CC8(CCC(c9ccc%10c(c9)n(C)c(=O)n%10C9CCC(=O)NC9=O)CC8)C7)CC5)CC6)nc4c3F)c12 (stereo partly drawn) [Compound 364, ((3S,7aS)-7a-(((7-(8-ethyl-7-fluoro-3-hydroxynaphthalen-1-yl)-8-fluoro-4-((R)-3-hydroxy-3-methylpiperidin-1-yl)pyrido[4,3-d]pyrimidin-2-yl)oxy)methyl)hexahydro-1H-pyrrolizin-3-yl)methyl 4-((7-(1-(2,6-dioxopiperidin-3-yl)-3-methyl-2-oxo-2,3-dihydro-1H-benzo[d]imidazol-5-yl)-2-azaspiro[3.5]nonan-2-yl)methyl)piperidine-1-carboxylate] | < 10 nM | < 100 nM | – | –
CCc1c(F)ccc2cc(O)cc(-c3ncc4c(N5CCC[C@H]5CO)nc(OC[C@@]56CCCN5[C@H](COC(=O)N5CCC7(CC5)CC(N5CCC(c8ccc9c(c8)n(C)c(=O)n9C8CCC(=O)NC8=O)CC5)C7)CC6)nc4c3F)c12 (stereo partly drawn) [Compound 351, ((3S,7aS)-7a-(((7-(8-ethyl-7-fluoro-3-hydroxynaphthalen-1-yl)-8-fluoro-4-((S)-2-(hydroxymethyl)pyrrolidin-1-yl)pyrido[4,3-d]pyrimidin-2-yl)oxy)methyl)hexahydro-1H-pyrrolizin-3-yl)methyl 2-(4-(1-(2,6-dioxopiperidin-3-yl)-3-methyl-2-oxo-2,3-dihydro-1H-benzo[d]imidazol-5-yl)piperidin-1-yl)-7-azaspiro[3.5]nonane-7-carboxylate] | < 10 nM | < 100 nM | – | –
CCc1c(F)ccc2cccc(-c3ncc4c(N5CCC[C@@](C)(O)C5)nc(OC[C@@]56CCCN5[C@H](COC(=O)NCCOCCOc5ccc7c(c5)n(C)c(=O)n7C5CCC(=O)NC5=O)CC6)nc4c3F)c12 (stereo partly drawn) [Compound 103, ((3S,7aS)-7a-(((7-(8-ethyl-7-fluoronaphthalen-1-yl)-8-fluoro-4-((R)-3-hydroxy-3-methylpiperidin-1-yl)pyrido[4,3-d]pyrimidin-2-yl)oxy)methyl)hexahydro-1H-pyrrolizin-3-yl)methyl (2-(2-((1-(2,6-dioxopiperidin-3-yl)-3-methyl-2-oxo-2,3-dihydro-1H-benzo[d]imidazol-5-yl)oxy)ethoxy)ethyl) carbamate] | > 100 nM | > 300 nM | 15 to 50% | –
CCc1c(F)ccc2cc(O)cc(-c3ncc4c(N5CCC[C@@](C)(O)C5)nc(OC[C@]56CCCN5[C@H](COC(=O)N5CCC(Oc7cccc8c7n(C)c(=O)n8C7CCC(=O)NC7=O)CC5)CC6)nc4c3F)c12 (stereo partly drawn) [Compound 306, ((3S,7aR)-7a-(((7-(8-ethyl-7-fluoro-3-hydroxynaphthalen-1-yl)-8-fluoro-4-((R)-3-hydroxy-3-methylpiperidin-1-yl)pyrido[4,3-d]pyrimidin-2-yl)oxy)methyl)hexahydro-1H-pyrrolizin-3-yl)methyl 4-((1-(2,6-dioxopiperidin-3-yl)-3-methyl-2-oxo-2,3-dihydro-1H-benzo[d]imidazol-4-yl)oxy)piperidine-1-carboxylate] | 10 to 100 nM | – | – | > 100 nM
C#Cc1c(F)ccc2cccc(-c3ncc4c(N5CCC[C@@](C)(O)C5)nc(OC[C@@]56CCCN5[C@H](COC(=O)NCCOc5ccc7c(c5)n(C)c(=O)n7C5CCC(=O)NC5=O)CC6)nc4c3F)c12 (stereo partly drawn) [Compound 106, ((3S,7aS)-7a-(((7-(8-ethynyl-7-fluoronaphthalen-1-yl)-8-fluoro-4-((R)-3-hydroxy-3-methylpiperidin-1-yl)pyrido[4,3-d]pyrimidin-2-yl)oxy)methyl)hexahydro-1H-pyrrolizin-3-yl)methyl (2-((1-(2,6-dioxopiperidin-3-yl)-3-methyl-2-oxo-2,3-dihydro-1H-benzo[d]imidazol-5-yl)oxy)ethyl) carbamate] | > 100 nM | > 300 nM | < 15% | –
C#Cc1c(F)ccc2cccc(-c3ncc4c(N5CCC[C@@](C)(O)C5)nc(OCC5(CN6CCC(N7CCC(c8cccc9c8n(C)c(=O)n9C8CCC(=O)NC8=O)CC7)CC6)CC5)nc4c3F)c12 (some centres unmarked) [Compound 74] | > 100 nM | > 300 nM | – | –
C#Cc1c(F)ccc2cc(O)cc(-c3ncc4c(N5CCC[C@@](C)(O)C5)nc(OCC5(CN6CCC(CN7CCN(c8cccc9c8n(C)c(=O)n9C8CCC(=O)NC8=O)CC7)CC6)CC5)nc4c3F)c12 (some centres unmarked) [Compound 72] | < 10 nM | < 100 nM | – | –
C#Cc1c(F)ccc2cccc(-c3ncc4c(N5CCC[C@@](C)(O)C5)nc(OCC5(CN6CCC(CN7CCN(c8cccc9c8n(C)c(=O)n9C8CCC(=O)NC8=O)CC7)CC6)CC5)nc4c3F)c12 (some centres unmarked) [Compound 73] | > 100 nM | > 300 nM | – | –
CCc1c(F)ccc2cc(O)cc(-c3ncc4c(N5CCC[C@@](C)(O)C5)nc(OC[C@@]56CCCN5[C@@H](COC(=O)N5CCC(Oc7cccc8c7n(C)c(=O)n8C7CCC(=O)NC7=O)CC5)CC6)nc4c3F)c12 (stereo partly drawn) [Compound 313, ((3R,7aS)-7a-(((7-(8-ethyl-7-fluoro-3-hydroxynaphthalen-1-yl)-8-fluoro-4-((R)-3-hydroxy-3-methylpiperidin-1-yl)pyrido[4,3-d]pyrimidin-2-yl)oxy)methyl)hexahydro-1H-pyrrolizin-3-yl)methyl 4-((1-(2,6-dioxopiperidin-3-yl)-3-methyl-2-oxo-2,3-dihydro-1H-benzo[d]imidazol-4-yl)oxy)piperidine-1-carboxylate] | > 100 nM | – | – | > 100 nM
CCc1c(F)ccc2cc(O)cc(-c3ncc4c(N5CCC[C@@](C)(O)C5)nc(OC[C@@]56CCCN5[C@H](COC(=O)N5CCC(C)(CN7CCN(c8ccc9c(c8)n(C)c(=O)n9C8CCC(=O)NC8=O)CC7)CC5)CC6)nc4c3F)c12 (stereo partly drawn) [Compound 502, ((3S,7aS)-7a-(((7-(8-ethyl-7-fluoro-3-hydroxynaphthalen-1-yl)-8-fluoro-4-((R)-3-hydroxy-3-methylpiperidin-1-yl)pyrido[4,3-d]pyrimidin-2-yl)oxy)methyl)hexahydro-1H-pyrrolizin-3-yl)methyl 4-((4-(1-(2,6-dioxopiperidin-3-yl)-3-methyl-2-oxo-2,3-dihydro-1H-benzo[d]imidazol-5-yl)piperazin-1-yl)methyl)-4-methylpiperidine-1-carboxylate] | < 10 nM | < 100 nM | – | –
CCc1c(F)ccc2cc(O)cc(-c3ncc4c(N5CCC[C@@](C)(O)C5)nc(OC[C@@]56CCCN5[C@H](COC(=O)N5CCC(C#Cc7cccc8c7n(C)c(=O)n8C7CCC(=O)NC7=O)CC5)CC6)nc4c3F)c12 (stereo partly drawn) [Compound 403, ((3S,7aS)-7a-(((7-(8-ethyl-7-fluoro-3-hydroxynaphthalen-1-yl)-8-fluoro-4-((R)-3-hydroxy-3-methylpiperidin-1-yl)pyrido[4,3-d]pyrimidin-2-yl)oxy)methyl)hexahydro-1H-pyrrolizin-3-yl)methyl 4-((1-(2,6-dioxopiperidin-3-yl)-3-methyl-2-oxo-2,3-dihydro-1H-benzo[d]imidazol-4-yl)ethynyl)piperidine-1-carboxylate] | > 100 nM | – | – | > 100 nM
C#Cc1c(F)ccc2cccc(-c3ncc4c(N5CCC[C@@](C)(O)C5)nc(OC[C@@]56CCCN5[C@H](COC(=O)N5CCC(N7CCC(c8cccc9c8n(C)c(=O)n9C8CCC(=O)NC8=O)CC7)CC5)CC6)nc4c3F)c12 (some centres unmarked) [Compound 147] | > 100 nM | – | – | > 100 nM
CCc1c(F)ccc2cc(O)cc(-c3ccc4c(N5CCC[C@@](C)(O)C5)nc(OC[C@@]56CCCN5[C@H](COC(=O)N5CCC(CN7CCC(c8ccc9c(c8)n(C)c(=O)n9C8CCC(=O)NC8=O)CC7)CC5)CC6)nc4c3F)c12 (some centres unmarked) [Compound 146] | < 10 nM | < 100 nM | – | –
